EC50 data for 25 compounds are collected here from patent publication US11897851B2, “Heterocyclic GLP-1 agonists” (Gasherbrum Bio, Inc., priority 2021, dated 2024).

The assay addresses T1, GLP-1 Receptor (Homo sapiens, UniProt P43220).
T1 construct: host or cells: HEK293/GLP1R/CRE-LUC (HEK293/CRE-Luc stably expressing the GLP-1 receptor)
Briefly: GLP-1R agonist cAMP stimulation assay (HEK293/GLP1R/CRE-LUC cells, Cisbio cAMP dynamic 2 kit).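 Further: compounds tested in half-log serial dilution, cAMP detected with cAMP-d2 and anti-cAMP cryptate antibody reagents after 1 h at room temperature.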 The assay is classed as cell-based. To be noted: HEK293/CRE-Luc cell line stably expressing the GLP-1 Receptor; 1000 cells/well; 30 min at 37° C.; 0.5 mM IBMX, 0.1% BSA; read-out: GLP1R cAMP Stimulation DR: EC50.

In general, EC50 refers to the concentration that produces a half-maximal response.

T1 sequence (P43220 24-463, species assumed): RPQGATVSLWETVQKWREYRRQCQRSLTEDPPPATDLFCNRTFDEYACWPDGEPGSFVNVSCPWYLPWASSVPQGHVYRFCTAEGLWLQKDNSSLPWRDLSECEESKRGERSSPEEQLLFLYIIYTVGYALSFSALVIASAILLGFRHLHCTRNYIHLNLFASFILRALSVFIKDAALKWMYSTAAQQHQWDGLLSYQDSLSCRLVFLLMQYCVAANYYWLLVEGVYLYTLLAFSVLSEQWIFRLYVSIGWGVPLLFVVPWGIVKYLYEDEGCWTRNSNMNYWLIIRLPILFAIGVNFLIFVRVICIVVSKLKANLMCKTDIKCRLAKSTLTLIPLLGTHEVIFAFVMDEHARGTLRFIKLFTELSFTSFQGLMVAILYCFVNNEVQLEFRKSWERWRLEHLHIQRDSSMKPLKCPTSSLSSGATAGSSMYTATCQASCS

Consider `Cc1ncoc1Cn1c(/C=C/C(=O)O)cnc1CN1CCC(c2cccc3c2OC(C)(c2ccc(Cl)cc2F)O3)CC1` (stereo not shown) [Compound 190, (E)-3-(2-((4-(2-(4-chloro-2-fluorophenyl)-2-methylbenzo[d][1,3]dioxol-4-yl)piperidin-1-yl)methyl)-1-((4-methyloxazol-5-yl)methyl)-1H-imidazol-5-yl)acrylic acid], for which the EC50 turned out to be 0.012 nM.

Take `CC1(c2ccc(Cl)cc2F)Oc2cccc(C3CCN(Cc4ncc(/C=C/C(=O)O)n4CCC4CC4)CC3)c2O1` (stereo not shown) [Compound 191, (E)-3-(2-((4-(2-(4-chloro-2-fluorophenyl)-2-methylbenzo[d][1,3]dioxol-4-yl)piperidin-1-yl)methyl)-1-(2-cyclopropylethyl)-1H-imidazol-5-yl)acrylic acid]: the concentration for a half-maximal effect (EC50) came to 0.33 nM.

On to `CC1(c2ccc(Cl)cc2F)Oc2cccc(C3CCN(Cc4ncc(/C=C/C(=O)O)n4CC4(C#N)CC4)CC3)c2O1` (stereo not shown) [Compound 192, (E)-3-(2-((4-(2-(4-chloro-2-fluorophenyl)-2-methylbenzo[d][1,3]dioxol-4-yl)piperidin-1-yl)methyl)-1-((1-cyanocyclopropyl)methyl)-1H-imidazol-5-yl)acrylic acid], for which the EC50 turned out to be 0.073 nM.

Consider `CC#CCn1c(/C=C/C(=O)O)cnc1CN1CCC(c2cccc3c2OC(C)(c2ccc(Cl)cc2F)O3)CC1` (stereo not shown) [Compound 193, (E)-3-(1-(but-2-yn-1-yl)-2-((4-(2-(4-chloro-2-fluorophenyl)-2-methylbenzo[d][1,3]dioxol-4-yl)piperidin-1-yl)methyl)-1H-imidazol-5-yl)acrylic acid], for which the EC50 is 0.11 nM.

On to `CC1(c2ccc(Cl)cc2F)Oc2cccc(C3CCN(Cc4ncc(/C=C/C(=O)O)n4CC4COC4)CC3)c2O1` (stereo not shown) [Compound 194, (E)-3-(2-((4-(2-(4-chloro-2-fluorophenyl)-2-methylbenzo[d][1,3]dioxol-4-yl)piperidin-1-yl)methyl)-1-(oxetan-3-ylmethyl)-1H-imidazol-5-yl)acrylic acid], for which the EC50 is 0.064 nM.

Consider `COCCCn1c(/C=C/C(=O)O)cnc1CN1CCC(c2cccc3c2OC(C)(c2ccc(Cl)cc2F)O3)CC1` (stereo not shown) [Compound 195, (E)-3-(2-((4-(2-(4-chloro-2-fluorophenyl)-2-methylbenzo[d][1,3]dioxol-4-yl)piperidin-1-yl)methyl)-1-(3-methoxypropyl)-1H-imidazol-5-yl)acrylic acid], for which the EC50 came to 0.091 nM.

For `COC1(Cn2c(/C=C/C(=O)O)cnc2CN2CCC(c3cccc4c3OC(C)(c3ccc(Cl)cc3F)O4)CC2)CC1` (stereo not shown) [Compound 196, (E)-3-(2-((4-(2-(4-chloro-2-fluorophenyl)-2-methylbenzo[d][1,3]dioxol-4-yl)piperidin-1-yl)methyl)-1-((1-methoxycyclopropyl)methyl)-1H-imidazol-5-yl)acrylic acid], the EC50 is 0.058 nM.

`CCOCCn1c(/C=C/C(=O)O)cnc1CN1CCC(c2cccc3c2OC(C)(c2ccc(Cl)cc2F)O3)CC1` (stereo not shown) [Compound 197, (E)-3-(2-((4-(2-(4-chloro-2-fluorophenyl)-2-methylbenzo[d][1,3]dioxol-4-yl)piperidin-1-yl)methyl)-1-(2-ethoxyethyl)-1H-imidazol-5-yl)acrylic acid]: the EC50 amounted to 0.019 nM.

With `C[C@]1(c2ccc(Cl)cc2F)Oc2cccc(C3CCN(Cc4ncc(/C=C/C(=O)O)n4CCOCC(F)(F)F)CC3)c2O1` [Compound 198a, (S,E)-3-(2-((4-(2-(4-chloro-2-fluorophenyl)-2-methylbenzo[d][1,3]dioxol-4-yl)piperidin-1-yl)methyl)-1-(2-(2,2,2-trifluoroethoxy)ethyl)-1H-imidazol-5-yl)acrylic acid], the concentration for a half-maximal effect (EC50) stood at 0.0095 nM.

Take `Cc1ncoc1Cn1c(/C=C/C(=O)O)cnc1CN1CCC(c2cccc3c2OC[C@@H](c2ccc(Cl)cc2)O3)CC1` [Compound 199a, (R,E)-3-(2-((4-(2-(4-chlorophenyl)-2,3-dihydrobenzo [b][1,4]dioxin-5-yl)piperidin-1-yl)methyl)-1-((4-methyloxazol-5-yl)methyl)-1H-imidazol-5-yl)acrylic acid]: the EC50 amounted to 1.6 nM.

With `CC1(c2ccc(Cl)cc2F)Oc2cccc(C3CCN(Cc4ncc(/C=C/C(=O)O)n4CCN4CCOC4=O)CC3)c2O1` (stereo not shown) [Compound 200, (E)-3-(2-((4-(2-(4-chloro-2-fluorophenyl)-2-methylbenzo[d][1,3]dioxol-4-yl)piperidin-1-yl)methyl)-1-(2-(2-oxooxazolidin-3-yl)ethyl)-1H-imidazol-5-yl)acrylic acid], the EC50 was 0.22 nM.

In the case of `CC1(c2ccc(Cl)cc2F)Oc2cccc(C3CCN(Cc4ncc(/C=C/C(=O)O)n4CCOC4CC4)CC3)c2O1` (stereo not shown) [Compound 201, (E)-3-(2-((4-(2-(4-chloro-2-fluorophenyl)-2-methylbenzo[d][1,3]dioxol-4-yl)piperidin-1-yl)methyl)-1-(2-cyclopropoxyethyl)-1H-imidazol-5-yl)acrylic acid], the EC50 is 0.034 nM.

Turning to `Cc1ncc(Cn2c(/C=C/C(=O)O)cnc2CN2CCC(c3cccc4c3OC(C)(c3ccc(Cl)cc3F)O4)CC2)o1` (stereo not shown) [Compound 202, (E)-3-(2-((4-(2-(4-chloro-2-fluorophenyl)-2-methylbenzo[d][1,3]dioxol-4-yl)piperidin-1-yl)methyl)-1-((2-methyloxazol-5-yl)methyl)-1H-imidazol-5-yl)acrylic acid], the EC50 was 0.26 nM.

In the case of `CCc1nocc1Cn1c(/C=C/C(=O)O)cnc1CN1CCC(c2cccc3c2OC(C)(c2ccc(Cl)cc2F)O3)CC1` (stereo not shown) [Compound 203, (E)-3-(2-((4-(2-(4-chloro-2-fluorophenyl)-2-methylbenzo[d][1,3]dioxol-4-yl)piperidin-1-yl)methyl)-1-((3-ethylisoxazol-4-yl)methyl)-1H-imidazol-5-yl)acrylic acid], the EC50 turned out to be 0.058 nM.

Regarding `Cc1nocc1Cn1c(/C=C/C(=O)O)cnc1CN1CCC(c2cccc3c2OC(C)(c2ccc(Cl)cc2F)O3)CC1` (stereo not shown) [Compound 204, (E)-3-(2-((4-(2-(4-chloro-2-fluorophenyl)-2-methylbenzo[d][1,3]dioxol-4-yl)piperidin-1-yl)methyl)-1-((3-methylisoxazol-4-yl)methyl)-1H-imidazol-5-yl)acrylic acid], the EC50 is 0.012 nM.

Take `O=C(O)/C=C/c1cnc(CN2CCC(c3cccc4c3OC[C@@H](c3ccc(Cl)cc3)O4)CC2)n1Cc1cnco1` [Compound 205a, (R,E)-3-(2-((4-(2-(4-chlorophenyl)-2,3-dihydrobenzo[b][1,4]dioxin-5-yl)piperidin-1-yl)methyl)-1-(oxazol-5-ylmethyl)-1H-imidazol-5-yl)acrylic acid]: the EC50 was determined as 0.26 nM.

As to `Cn1cncc1Cn1c(/C=C/C(=O)O)cnc1CN1CCC(c2cccc3c2OC[C@@H](c2ccc(Cl)cc2)O3)CC1` [Compound 206a, (R,E)-3-(2-((4-(2-(4-chlorophenyl)-2,3-dihydrobenzo[b][1,4]dioxin-5-yl)piperidin-1-yl)methyl)-1-((1-methyl-1H-imidazol-5-yl)methyl)-1H-imidazol-5-yl)acrylic acid], the EC50 worked out at 0.19 nM.

Take `CCn1cncc1Cn1c(/C=C/C(=O)O)cnc1CN1CCC(c2cccc3c2OC[C@@H](c2ccc(Cl)cc2)O3)CC1` [Compound 207a, (R,E)-3-(2-((4-(2-(4-chlorophenyl)-2,3-dihydrobenzo [b][1,4]dioxin-5-yl)piperidin-1-yl)methyl)-1-((1-ethyl-1H-imidazol-5-yl)methyl)-1H-imidazol-5-yl)acrylic acid]: the EC50 is 0.016 nM.

With `CCn1cncc1Cn1c(/C=C(\C)C(=O)O)cnc1CN1CCC(c2cccc3c2OC[C@@H](c2ccc(Cl)cc2)O3)CC1` [Compound 208a, (R,E)-3-(2-((4-(2-(4-chlorophenyl)-2,3-dihydrobenzo [b][1,4]dioxin-5-yl)piperidin-1-yl)methyl)-1-((1-ethyl-1H-imidazol-5-yl)methyl)-1H-imidazol-5-yl)-2-methylacrylic acid], the EC50 worked out at 0.011 nM.

As to `O=C(O)/C=C/c1cnc(CN2CCC(c3cccc4c3OC[C@@H](c3ccc(Cl)cc3)O4)CC2)n1Cc1cccnc1` [Compound 209a, (R,E)-3-(2-((4-(2-(4-chlorophenyl)-2,3-dihydrobenzo[b][1,4]dioxin-5-yl)piperidin-1-yl)methyl)-1-(pyridin-3-ylmethyl)-1H-imidazol-5-yl)acrylic acid], the concentration for a half-maximal effect (EC50) worked out at 0.54 nM.

As for `O=C(O)/C=C/c1cnc(CN2CCC(c3cccc4c3OC[C@@H](c3ccc(Cl)cc3)O4)CC2)n1Cc1ccccc1` [Compound 210a, (R,E)-3-(1-benzyl-2-((4-(2-(4-chlorophenyl)-2,3-dihydrobenzo[b][1,4]dioxin-5-yl)piperidin-1-yl)methyl)-1H-imidazol-5-yl)acrylic acid], the EC50 worked out at 0.43 nM.

In the case of `O=C(O)/C=C/c1cnc(CN2CCC(c3cccc(OCc4ccc(Cl)cc4F)n3)CC2)n1CC1CCC1` [Compound 211, (E)-3-(2-((4-(6-((4-chloro-2-fluorobenzyl)oxy)pyridin-2-yl)piperidin-1-yl)methyl)-1-(cyclobutylmethyl)-1H-imidazol-5-yl)acrylic acid], the concentration giving a half-maximal response (EC50) is 0.54 nM.

As to `CS(=O)(=O)CCn1c(/C=C/C(=O)O)cnc1CN1CCC(c2cccc(OCc3ccc(Cl)cc3F)n2)CC1` [Compound 212, (E)-3-(2-((4-(6-((4-chloro-2-fluorobenzyl)oxy)pyridin-2-yl)piperidin-1-yl)methyl)-1-(2-(methylsulfonyl)ethyl)-1H-imidazol-5-yl)acrylic acid], the EC50 is 6.4 nM.

For `O=C(O)/C=C/c1cnc(CN2CCC(c3cccc(OCc4ccc(Cl)cc4F)n3)CC2)n1CC1CCCO1` (stereo not shown) [Compound 213, (E)-3-(2-((4-(6-((4-chloro-2-fluorobenzyl)oxy)pyridin-2-yl)piperidin-1-yl)methyl)-1-((tetrahydrofuran-2-yl)methyl)-1H-imidazol-5-yl)acrylic acid], the EC50 turned out to be 4.2 nM.

Regarding `CCn1cncc1Cn1c(/C=C/C(=O)O)cnc1CN1CCC(c2cccc(OCc3ccc(Cl)cc3F)n2)CC1` [Compound 214, (E)-3-(2-((4-(6-((4-chloro-2-fluorobenzyl)oxy)pyridin-2-yl)piperidin-1-yl)methyl)-1-((1-ethyl-1H-imidazol-5-yl)methyl)-1H-imidazol-5-yl)acrylic acid], the EC50 was 0.0032 nM.
